# Results from patent US20100129800A1, “POLYMERS AND THEIR USE AS FLUORESCENT LABELS” (priority 2007, published 2010).
# Test: Fluorescence properties of the new compounds (excitation and emission wavelengths)
# Assay type: physicochemical
# Details: not given
SMILES,Fluorescence Excitation (nm),Fluorescence emission (nm)
"CC(O)C(COP(=O)(O)OC(C)C(CO)NC(=O)c1cc(-c2ccccc2)nc2ccccc12)NC(=O)c1c2ccccc2nc2c1[nH]c1ccccc12 (centres unmarked) [Example 37, O-{2-N-(2-phenylquinoline-4-carbamoyl-1-hydroxybutan-3-yl)} and O-(2-N-{10H-indolo[3,2-d]quinoline-11-carbamoyl}-3-hydroxybut-1-yl)]",342,492

# Same assay, conditions: free compound
SMILES,Fluorescence Excitation (nm),Fluorescence emission (nm)
"CC(O)C(CO)NC(=O)c1c2ccccc2nc2c1[nH]c1ccccc12 (centres unmarked) [Compound 2a, N-(1,3-dihydroxybutan-2-yl)-10H-indolo[3,2-d]quinoline-11-carboxamide]",346,402
"CC(O)C(CO)NC(=O)c1c2ccccc2nc2ccccc12 (centres unmarked) [Compound 2b, N-(1,3-dihydroxybutan-2-yl)acridine-9-carboxamide]",358,439
"CC(O)C(CO)NC(=O)CNC(=O)c1c2ccccc2nc2ccccc12 (centres unmarked) [Compound 2d, N-((1,3-dihydroxybutan-2-ylcarbamoyl)methyl)acridine-9-carboxamide]",247,440
"C[C@@H](O)[C@H](CO)NC(=O)c1cc(-c2ccccc2)nc2ccccc12 [Compound 2e, N-((2S, 3R)-1,3-dihydroxybutan-2-yl)-2-phenylquinoline-4-carboxamide]",326,377
"C[C@@H](O)[C@H](CO)NC(=O)CN1c2ccccc2C=C2C3C=CC=CC3=NC21 (stereo partly drawn) [Compound 2f, N-((2S, 3R)-1,3-dihydroxybutan-2-yl)-(4a, 10a-dihydro-10,11-diazabenzo[b]fluoren-10-yl)acetamide]",261,456
"OC[C@H](O)CNc1c2ccccc2nc2ccccc12 [Compound 5a, (R)-3-(Acridin-9-ylamino)propane-1,2-diol]",433,–
"Cn1c2c3ccccc3nc-2c(NC[C@H](O)CO)c2ccccc21 [Compound 5b, (S)-3-(5-Methyl-5H-indolo[3,2b]quinolin-11-ylamino)propane-1,2-diol]",340,469
"CC(O)C(COP(=O)(O)OC(C)C(CO)NC(=O)c1c2ccccc2nc2c1[nH]c1ccccc12)NC(=O)c1c2ccccc2nc2c1[nH]c1ccccc12 (centres unmarked) [Example 28, O-{2-N-(10H-indolo[3,2-d]quinoline-11-carbamoyl)-(1-hydroxybut-3-yl)} and O-(2-N-{10H-indolo[3,2-d]quinoline-11-carbamoyl}-3-hydroxybut-1-yl)phosphate]",346,495
"CC(OP(=O)(O)OCC(O)CNc1c2nc3ccccc3c-2n(C)c2ccccc12)C(CO)NC(=O)c1c2ccccc2nc2ccccc12 [Example 31, O-{2-N-(Acridine-9-carbamoyl)-(1-hydroxybut-3-yl)} and O-{3-(5-methyl-5H-indolo[3,2b]quinolin-11-ylamino-(S)-(2-hydroxyprop-3-yl} phosphate]",353,441
"CC(OP(O)(=S)OC[C@@H](O)CNc1c2nc3ccccc3c-2n(C)c2ccccc12)C(CO)NC(=O)c1c2ccccc2nc2ccccc12 (stereo partly drawn) [Example 32, O-{2-N-(Acridine-9-carbamoyl)-(1-hydroxybut-3-yl)} and O-}3-(5-methyl-5H-indolo[3,2b]quinolin-11-ylamino-(S)-(2-hydroxyprop-3-yl} phosphorotioate]",359,448
"NC(=O)CCCOP(=O)(O)O[C@H](CNc1c2ccccc2nc2ccccc12)COP(=O)(O)O[C@@H](CO)CNc1c2ccccc2nc2ccccc12 [Example 33, O-[(R)-3-(Acridin-9-ylamino)-1-hydroxy-propane-2-yl]-phosphate (2-1) O-{2-N-(acridine-9-ylamino)-2-oxyprop-1-yl} phosphate(2-4) 4-hydroxybutirame]",359,440
"CC(O)C(COP(=O)(O)OC(C)C(CO)NC(=O)c1cc(-c2ccccc2)nc2ccccc12)NC(=O)c1c2ccccc2nc2ccccc12 (centres unmarked) [Example 34, O-{2-N-(2-phenylquinoline-4-carbamoyl-1-hydroxybutan-3-yl)} and O-{2-N-(acridine-9-carbamoyl)-3-hydroxybut-1-yl} phosphate]",252,437
"CC(O)C(COP(=O)(O)OC(C)C(CO)NC(=O)c1cc(-c2ccccc2)nc2ccccc12)NC(=O)c1cc(-c2ccccc2)nc2ccccc12 (centres unmarked) [Example 35, O-{2-N-(2-phenylquinoline-4-carbamoyl-1-hydroxybutan-3-yl)} and O-{2-N-(2-phenylquinoline-4-carbamoyl-3-hydroxybutan-1-yl)} phosphate]",330,395
"CC(O)C(COP(=O)(O)OC(C)C(CO)NC(=O)c1c2ccccc2nc2ccccc12)NC(=O)c1cc(-c2ccccc2)nc2ccccc12 (centres unmarked) [Example 36, O-{2-N-(acridine-9-carbamoyl)-1-hydroxybut-3-yl} and O-{2-N-(2-phenylquinoline-4-carbamoyl-3-hydroxybutan-1-yl)} phosphate]",252,403
"CC(O)C(COP(=O)(O)OC(C)C(COP(=O)(O)OC(C)C(CO)NC(=O)c1c2ccccc2nc2ccccc12)NC(=O)c1c2ccccc2nc2c1[nH]c1ccccc12)NC(=O)CNC(=O)c1c2ccccc2nc2ccccc12 (centres unmarked) [Example 38, O-{2-N-(Acridine-9-carbamoyl)-(1-hydroxybut-3-yl)} phosphate (3-1) O-{2-N-(10H-indolo[3,2-d]quinoline-11-carbamoyl)-3-oxybut-1-yl} phosphate (3-1) O-{2-N-(acridine-9-carboxamido)acetamidol-(3-hydroxybut-1-yl)}]",359,438
"CC(OP(=O)(O)OCC(O)CNc1c2nc3ccccc3c-2n(C)c2ccccc12)C(CO)NC(=O)c1c2ccccc2nc2c1[nH]c1ccccc12 [Example 41, O-{2-N-(10H-indolo[3,2-d]quinoline-11-carbamoyl)-3-oxybut-1-yl} phosphate (3-1) O-{3-(5-methyl-5H-indolo[3,2-b]quinolin-11-ylamino-(S)-(2hydroxylprop-3-yl)]",275,476
"CC(O)C(COP(=O)(O)OC(C)C(COP(=O)(O)OC(C)C(CO)NC(=O)c1c2ccccc2nc2ccccc12)NC(=O)c1c2ccccc2nc2ccccc12)NC(=O)c1c2ccccc2nc2ccccc12 (centres unmarked) [Example 43, O-{2-N-(Acridine-9-carbamoyl)-(1-hydroxybut-3-yl)} phosphate (3-1) O-{2-N-(acridine-9-carbamoyl)-(1-hydroxybut-3-yl)} phosphate (3-1) O-{2-N-(acridine-9-carbamoyl)-(3-hydroxybut-1-yl)}]",360,440
